# Test results as given in article PMC9667588, “Synthesis and bioactivities evaluation of quinazolin-4(3H)-one derivatives as α-glucosidase inhibitors” (BMC Chemistry, 2022).
# “Also recorded” adds a separate entry of the source. Read-outs that look alike come from different tables or passages of the source.
# What was measured:
# [1] = system: breast cancer cell line MCF-7; set-up: method as in PMID 30366316; conditions: cited from earlier work
# α-glucosidase [2] = target: T1, α-glucosidase (Saccharomyces cerevisiae, UniProt P53341); conditions: cited from earlier work
# T1 sequence (P53341 whole entry): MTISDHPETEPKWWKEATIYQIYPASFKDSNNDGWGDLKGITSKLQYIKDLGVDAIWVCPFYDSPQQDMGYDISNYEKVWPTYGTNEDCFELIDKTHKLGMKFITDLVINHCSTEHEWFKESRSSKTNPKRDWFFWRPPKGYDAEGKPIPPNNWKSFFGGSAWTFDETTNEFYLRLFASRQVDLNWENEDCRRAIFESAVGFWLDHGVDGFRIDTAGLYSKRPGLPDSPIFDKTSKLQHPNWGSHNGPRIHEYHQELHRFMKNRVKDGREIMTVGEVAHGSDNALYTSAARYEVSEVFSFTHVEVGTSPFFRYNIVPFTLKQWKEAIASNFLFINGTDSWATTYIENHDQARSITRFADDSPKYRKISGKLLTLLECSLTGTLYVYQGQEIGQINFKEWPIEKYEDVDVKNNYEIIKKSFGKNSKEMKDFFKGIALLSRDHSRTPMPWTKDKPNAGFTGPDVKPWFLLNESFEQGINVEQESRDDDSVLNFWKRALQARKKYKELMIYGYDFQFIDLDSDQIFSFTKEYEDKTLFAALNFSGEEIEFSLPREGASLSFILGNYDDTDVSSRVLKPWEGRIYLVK
# α-glucosidase [3] = target: T1, α-glucosidase; assay: Enzyme kinetic studies (Lineweaver–Burk plot, secondary plot); type: biochemical; conditions: Km increased, Vmax unchanged
# Experimental: A Lineweaver–Burk plot was generated to identify the type of inhibition and the Michaelis–Menten constant (Km) value was determined from the plot between the reciprocal of the substrate concentration (1/[S]) and reciprocal of enzyme rate (1/V) over various inhibitor concentrations. The experimental inhibitor constant (Ki) value was constructed by secondary plots of the inhibitor concentration [I] versus Km.
# α-glucosidase [4] = target: T1, α-glucosidase; assay: α-glucosidase inhibition assay; type: biochemical
# α-amylase = system: α-amylase; set-up: method as in doi:10.1016/j.molstruc.2022.133650; conditions: at 108 μM; cited from earlier work
SMILES,melting point [°C],further results
O=c1c2ccccc2nc(SCc2cn(Cc3ccc(Br)cc3)nn2)n1CCc1ccccc1 [B],,toxicity against breast cancer cell line MCF-7 [1]: no toxicity
O=C(Cn1cc(COc2ccc(-c3nc4ccccc4c(=O)[nH]3)cc2)nn1)Nc1ccccc1 [C],,type of inhibition (α-glucosidase [2]): competitive
"COc1cc(-c2nc3ccccc3c(=O)[nH]2)ccc1OCC(=O)Nc1ccccc1 [Compound 7a, 2-(2-methoxy-4-(4-oxo-3,4-dihydroquinazolin-2-yl)phenoxy)-N-phenylacetamide]",192 to 194,
"COc1cc(-c2nc3ccccc3c(=O)[nH]2)ccc1OCC(=O)Nc1ccccc1F [Compound 7b, N-(2-fluorophenyl)-2-(2-methoxy-4-(4-oxo-3,4-dihydroquinazolin-2-yl)phenoxy)acetamide]",222 to 225,type of inhibition (α-glucosidase [3]): competitive type; also recorded: competitive inhibition; also recorded: competitive inhibitor
"COc1cc(-c2nc3ccccc3c(=O)[nH]2)ccc1OCC(=O)Nc1ccc(F)cc1 [Compound 7c, N-(4-fluorophenyl)-2-(2-methoxy-4-(4-oxo-3,4-dihydroquinazolin-2-yl)phenoxy)acetamide]",216 to 218,
"COc1cc(-c2nc3ccccc3c(=O)[nH]2)ccc1OCC(=O)Nc1ccccc1Cl [Compound 7d, N-(2-chlorophenyl)-2-(2-methoxy-4-(4-oxo-3,4-dihydroquinazolin-2-yl)phenoxy)acetamide]",207 to 209,
"COc1cc(-c2nc3ccccc3c(=O)[nH]2)ccc1OCC(=O)Nc1cccc(Cl)c1 [Compound 7e, N-(3-chlorophenyl)-2-(2-methoxy-4-(4-oxo-3,4-dihydroquinazolin-2-yl)phenoxy)acetamide]",203 to 205,
"COc1cc(-c2nc3ccccc3c(=O)[nH]2)ccc1OCC(=O)Nc1c(C)cccc1C [Compound 7j, N-(2,6-dimethylphenyl)-2-(2-methoxy-4-(4-oxo-3,4-dihydroquinazolin-2-yl)phenoxy)acetamide]",215 to 217,
"COc1ccc(NC(=O)COc2ccc(-c3nc4ccccc4c(=O)[nH]3)cc2OC)cc1 [Compound 7l, 2-(2-methoxy-4-(4-oxo-3,4-dihydroquinazolin-2-yl)phenoxy)-N-(4-methoxyphenyl)acetamide]",205 to 207,activity against α-glucosidase under the tested concentration (α-glucosidase [4]): did not show any activity
"COc1cc(-c2nc3ccccc3c(=O)[nH]2)ccc1OCC(=O)Nc1ccc(O)cc1 [Compound 7m, N-(4-hydroxyphenyl)-2-(2-methoxy-4-(4-oxo-3,4-dihydroquinazolin-2-yl)phenoxy)acetamide]",,activity against α-glucosidase under the tested concentration (α-glucosidase [4]): did not show any activity
"COc1cc(-c2nc3ccccc3c(=O)[nH]2)ccc1OCC(=O)Nc1ccc([N+](=O)[O-])cc1 [Compound 7n, 2-(2-methoxy-4-(4-oxo-3,4-dihydroquinazolin-2-yl)phenoxy)-N-(4-nitrophenyl)acetamide]",,activity against α-glucosidase under the tested concentration (α-glucosidase [4]): did not show any activity
"COc1cc(-c2nc3ccccc3c(=O)[nH]2)ccc1OCC(=O)Nc1ccc2ccccc2c1 [Compound 7o, 2-(2-methoxy-4-(4-oxo-3,4-dihydroquinazolin-2-yl)phenoxy)-N-(naphthalen-2-yl)acetamide]",217 to 219,
COc1cc(-c2nc3ccccc3[nH]2)ccc1OCC(=O)Nc1ccc(F)cc1 [F],,% inhibition against α-amylase (α-amylase): 45.0 ± 0.8%

# The next lines start with results.
melting point [°C],SMILES,further results
211 to 213,"COc1cc(-c2nc3ccccc3c(=O)[nH]2)ccc1OCC(=O)Nc1ccc(Cl)cc1 [Compound 7f, N-(4-chlorophenyl)-2-(2-methoxy-4-(4-oxo-3,4-dihydroquinazolin-2-yl)phenoxy)acetamide]",
203 to 205,"COc1cc(-c2nc3ccccc3c(=O)[nH]2)ccc1OCC(=O)Nc1ccc(Br)cc1 [Compound 7g, N-(4-bromophenyl)-2-(2-methoxy-4-(4-oxo-3,4-dihydroquinazolin-2-yl)phenoxy)acetamide]",
196 to 198,"COc1cc(-c2nc3ccccc3c(=O)[nH]2)ccc1OCC(=O)Nc1ccccc1C [Compound 7h, 2-(2-methoxy-4-(4-oxo-3,4-dihydroquinazolin-2-yl)phenoxy)-N-(o-tolyl)acetamide]",
199 to 201,"COc1cc(-c2nc3ccccc3c(=O)[nH]2)ccc1OCC(=O)Nc1ccc(C)cc1 [Compound 7i, 2-(2-methoxy-4-(4-oxo-3,4-dihydroquinazolin-2-yl)phenoxy)-N-(p-tolyl)acetamide]",
195 to 197,"CCc1ccc(NC(=O)COc2ccc(-c3nc4ccccc4c(=O)[nH]3)cc2OC)cc1 [Compound 7k, N-(4-ethylphenyl)-2-(2-methoxy-4-(4-oxo-3,4-dihydroquinazolin-2-yl)phenoxy)acetamide]",
191 to 193,"COc1cc(-c2nc3ccccc3c(=O)[nH]2)ccc1OCC(=O)NCc1ccc(C)cc1 [Compound 7p, 2-(2-methoxy-4-(4-oxo-3,4-dihydroquinazolin-2-yl)phenoxy)-N-(4-methylbenzyl)acetamide]",
224 to 226,"COc1cc(-c2nc3ccccc3c(=O)[nH]2)ccc1OCC(=O)NCc1ccc(F)cc1 [Compound 7q, N-(4-fluorobenzyl)-2-(2-methoxy-4-(4-oxo-3,4-dihydroquinazolin-2-yl)phenoxy)acetamide]",
194 to 196,"COc1cc(-c2nc3ccccc3c(=O)[nH]2)ccc1OCC(=O)NCc1ccccc1 [Compound 7r, N-benzyl-2-(2-methoxy-4-(4-oxo-3,4-dihydroquinazolin-2-yl)phenoxy)acetamide]",
